Assay results published in ChEMBL document CHEMBL5352410, “Discovery of novel selenium-containing azole derivatives as antifungal agents by exploiting the hydrophobic cleft of CYP51” (Eur J Med Chem, 2022).
Converted amounts (≈) assume the structure as drawn.

Experiments:
Assay type in all cases: functional
[1] = tested on: Cryptococcus neoformans; experiment: Antifungal activity against Cryptococcus neoformans by CLSI based broth microdilution method
[2] = tested on: Candida parapsilosis; experiment: Antifungal activity against Candida parapsilosis by CLSI based broth microdilution method; details: Lodderomyces parapsilosis
[3] = tested on: Pichia kudriavzevii; experiment: Antifungal activity against Pichia kudriavzevii by CLSI based broth microdilution method
[4] = tested on: [Candida] zeylanoides; experiment: Antifungal activity against Candida zeylanoides by CLSI based broth microdilution method; details: Dujonia zeylanoides
[5] = tested on: Aspergillus fumigatus; experiment: Antifungal activity against Aspergillus fumigatus by CLSI based broth microdilution method
[6] = tested on: Candida albicans; experiment: Antifungal activity against Candida albicans by CLSI based broth microdilution method
[7] = tested on: Candida albicans; experiment: Antifungal activity against Candida albicans sc5314 by CLSI based broth microdilution method
[8] = tested on: Candida albicans; experiment: Antifungal activity against FCZ-resistant Candida albicans 17# by CLSI based broth microdilution method
[9] = tested on: Candida albicans; experiment: Antifungal activity against FCZ-resistant Candida albicans 901 by CLSI based broth microdilution method
[10] = tested on: Candida albicans; experiment: Antifungal activity against FCZ-resistant Candida albicans 904 by CLSI based broth microdilution method
[11] = tested on: Nakaseomyces glabratus; experiment: Antifungal activity against Candida glabrata by CLSI based broth microdilution method
[12] = tested on: Candida albicans; experiment: Antifungal activity against FCZ-resistant Candida albicans CaR by CLSI based broth microdilution method
[13] = tested on: Candida albicans; experiment: Antifungal activity against FCZ-resistant Candida albicans 632 by CLSI based broth microdilution method
[14] = tested on: Candida albicans; experiment: Fungicidal activity against Candida albicans
[15] = tested on: Candida albicans; experiment: Fungicidal activity against FCZ-resistant Candida albicans 17#
[16] = tested on: Candida albicans; experiment: Fungicidal activity against FCZ-resistant Candida albicans 904
[17] = tested on: Candida albicans; experiment: Fungicidal activity against FCZ-resistant Candida albicans 632
[18] = tested on: Candida albicans; experiment: Fungicidal activity against Candida albicans sc5314
[19] = tested on: Candida albicans; experiment: Fungicidal activity against FCZ-resistant Candida albicans 901
[20] = tested on: Candida albicans; experiment: Fungicidal activity against FCZ-resistant Candida albicans CaR

SMILES	MIC [1] [µg/mL]	MIC [2] [µg/mL]	MIC [3] [µg/mL]	MIC [4] [µg/mL]	MIC [5] [µg/mL]	MIC [6] [µg/mL]	MIC [7] [µg/mL]	MIC [8] [µg/mL]	MIC [9] [µg/mL]	MIC [10] [µg/mL]	MIC [11] [µg/mL]	MIC [12] [µg/mL]	MIC [13] [µg/mL]	MFC [14] [µg/mL]	MFC [15] [µg/mL]	MFC [16] [µg/mL]	MFC [17] [µg/mL]	MFC [18] [µg/mL]	MFC [19] [µg/mL]	MFC [20] [µg/mL]
Fc1ccc(C(Cn2cnnn2)[Se]C(Cn2cnnn2)c2ccc(F)cc2F)c(F)c1 (configuration not stated)	> 64	> 64	> 64	> 64	> 64	> 64	> 64	> 64	> 64	> 64	> 64	> 64	> 64							
Fc1ccc(C(Cn2ccnc2)[Se][Se]C(Cn2ccnc2)c2ccc(F)cc2F)c(F)c1 (configuration not stated)								8 (≈ 14 µM)	4 (≈ 6.99 µM)	8 (≈ 14 µM)		4 (≈ 6.99 µM)	8 (≈ 14 µM)	32 (≈ 55.9 µM)	> 64	8 (≈ 14 µM)	16 (≈ 28 µM)	16 (≈ 28 µM)	8 (≈ 14 µM)	> 64
Clc1ccc(C(Cn2ccnn2)[Se]C(Cn2ccnn2)c2ccc(Cl)cc2Cl)c(Cl)c1 (configuration not stated)	64 (≈ 114 µM)	> 64	> 64	32 (≈ 57 µM)	> 64	> 64	> 64	4 (≈ 7.13 µM)	> 64	> 64	64 (≈ 114 µM)	128 (≈ 228 µM)	> 64							
Fc1ccc(C(Cn2cnnn2)[Se][Se]C(Cn2cnnn2)c2ccc(F)cc2)cc1 (configuration not stated)								32 (≈ 59.2 µM)	> 64	> 64		16 (≈ 29.6 µM)	> 64							
Clc1ccc(C(Cn2cnnn2)[Se]C(Cn2cnnn2)c2ccc(Cl)cc2Cl)c(Cl)c1 (configuration not stated)	> 64	> 64	> 64	> 64	> 64	> 64	> 64	> 64	> 64	> 64	> 64	> 64	> 64							
Fc1ccc(C(Cn2cnnn2)[Se][Se]C(Cn2cnnn2)c2ccc(F)cc2F)c(F)c1 (configuration not stated)								64 (≈ 111 µM)	> 64	> 64		> 64	> 64							
Clc1ccc(C(Cn2cnnn2)[Se][Se]C(Cn2cnnn2)c2ccc(Cl)cc2)cc1 (configuration not stated)								> 64	> 64	> 64		> 64	> 64							
Fc1ccc(C(Cn2cncn2)[Se][Se]C(Cn2cncn2)c2ccc(F)cc2F)c(F)c1 (configuration not stated)								8 (≈ 13.9 µM)	16 (≈ 27.9 µM)	64 (≈ 111 µM)		16 (≈ 27.9 µM)	> 64							
Fc1ccc(C(Cn2ccnc2)[Se][Se]C(Cn2ccnc2)c2ccc(F)cc2)cc1 (configuration not stated)								32 (≈ 59.7 µM)	16 (≈ 29.8 µM)	64 (≈ 119 µM)		4 (≈ 7.46 µM)	64 (≈ 119 µM)	> 64	> 64	64 (≈ 119 µM)	> 64	> 64	32 (≈ 59.7 µM)	> 64
Clc1ccc(C(Cn2cncn2)[Se][Se]C(Cn2cncn2)c2ccc(Cl)cc2Cl)c(Cl)c1 (configuration not stated)								16 (≈ 25 µM)	> 64	> 64		8 (≈ 12.5 µM)	> 64							
Fc1ccc(C(Cn2ccnn2)[Se]C(Cn2ccnn2)c2ccc(F)cc2F)c(F)c1 (configuration not stated)	32 (≈ 64.6 µM)	> 64	> 64	1 (≈ 2.02 µM)	> 64	> 64	> 64	4 (≈ 8.08 µM)	> 64	> 64	64 (≈ 129 µM)	64 (≈ 129 µM)	> 64							
Fc1ccc(C(Cn2cncn2)[Se][Se]C(Cn2cncn2)c2ccc(F)cc2)cc1 (configuration not stated)								16 (≈ 29.7 µM)	16 (≈ 29.7 µM)	16 (≈ 29.7 µM)		4 (≈ 7.43 µM)	64 (≈ 119 µM)							
Clc1ccc(C(Cn2ccnn2)[Se][Se]C(Cn2ccnn2)c2ccc(Cl)cc2Cl)c(Cl)c1 (configuration not stated)								64 (≈ 100 µM)	> 64	> 64		4 (≈ 6.25 µM)	> 64							
Fc1ccc(C(Cn2cncn2)[Se]C(Cn2cncn2)c2ccc(F)cc2)cc1 (configuration not stated)	> 64	> 64	> 64	1 (≈ 2.18 µM)	> 64	> 64	32 (≈ 69.7 µM)	8 (≈ 17.4 µM)	> 64	64 (≈ 139 µM)	64 (≈ 139 µM)	64 (≈ 139 µM)	> 64							
Fc1ccc(C(Cn2cnnn2)[Se]C(Cn2cnnn2)c2ccc(F)cc2)cc1 (configuration not stated)	> 64	> 64	> 64	32 (≈ 69.4 µM)	> 64	> 64	> 64	> 64	> 64	> 64	> 64	> 64	> 64							
